The source of these data is patent US20060269924A1, “Modulation of telomere-initiated cell signaling” (TRUSTEES OF BOSTON UNIVERSITY, priority 2003, published 2006).

Series [1] has as its system keratinocyte cell line (SSC12F). In words: S-phase arrest by FACS in keratinocyte cell line. It is filed as cell-based. Particulars: 48 hours, 11mer-1 alone (10 μM per FIG. 3B). As for the experimental part:
FIGS. 3A-3G are profiles showing the results of fluorescence activated cell sorting, for the following additions to the cells: FIG. 3A, diluent; FIG. 3B, 10 μM 11mer-1; FIG. 3C, 10 μM 11mer-1 and 1 μM 11mer-1-S; FIG. 3D, 10 μM 11mer-1 and 5 μM 11mer-1-S; FIG. 3E, 10 μM 11mer-1 and 10 μM 11mer-1-S; FIG. 3F, 20 μM 11mer-1-S; FIG. 3G, 10μM 11mer-1-S.
Forty-three percent of the cells were in the S phase, compared to 26% of the control, diluent-treated cells.

Series [2] deals with cdk4^R24C R2F fibroblasts. As to the kind of experiment: SA-β-Gal staining, cdk4^R24C R2F fibroblasts. Particulars: 40 μM, 1 week. It is filed as cell-based, human. On the procedure:
FIG. 12a: Immunoblot analysis of p53DD and cdk4^R24C expression. Cells were collected for protein analysis by western blot using 30 μg total protein and probed for total p53 and cdk4. Lanes 1, 2, 3 and 4 contain protein samples from R2F, R2F (p53DD), R2F (cdk4^R24C) and R2F (p53DD/cdk4^R24C) fibroblasts, respective. β-actin was used as a loading control. FIG. 12b: Contribution of p53 and pRb pathways to T-oligo-induced SA-β-Gal activity. R2F fibroblasts and derived transductants were treated with diluent or 40 μM T-oligo for one week and then assayed for SA-β-Gal activity. FIG. 12c: Quantitative analysis of SA-β-Gal positive cells. Cells expressing SA-β-Gal activity were counted and presented as percentage of total cells in the cultures. Averages and standard deviations were calculated from 3 representative fields from each of 3 independent experiments.
R2F newborn dermal fibroblasts and derived p53DD, […] and p53DD/cdk4^R24C transductants (a generous gift from Dr. James G. Rheinwald of Harvard Medical School) lack a functional p53 pathway, pRb pathway, and both pathways respectively.
Cells were treated once with diluent alone, 40 μM T-oligo or 40 μM complementary oligo for 1 week without re-feeding. […]
Cells were treated with either diluent or 40 μM T-oligo for 1 week and then assessed for SA-β-Gal activity. […]

For series [3], the system named is HT-1080 fibrosarcoma cells. As to the kind of experiment: BrdU incorporation assay, HT-1080 cells. It is filed as cell-based, human. As for the experimental part: FIG. 13a: Exposure to T-oligo increases SA-β-Gal activity. HT-1080 cells were treated for 4 days with diluent alone or 40 μM T-oligo or the complementary control oligo, then stained and assayed for SA-β-Gal activity. FIG. 13b: Quantitative analysis of SA-β-Gal positive cells. Cells expressing SA-β-Gal activity were counted and presented as percentage of total cells in the cultures. Averages and standard deviations were calculated from 3 representative fields from each of 3 independent experiments. FIG. 13c: Effect of T-oligo on cell proliferation. Cells were treated for 4 days as in FIG. 12 and assayed for DNA synthesis by BrdU incorporation. FIG. 13d: Quantitative analysis of BrdU incorporation. Dark black nuclei indicate BrdU incorporated into nuclear DNA. BrdU positive cells were calculated and presented as percentage of total cells in the cultures. Averages and standard deviations were calculated from 3 representative fields from each of 3 independent experiments. FIG. 13e: Effect of T-oligo on pRb phosphorylation. Cells were treated as in FIG. 13a and were then collected for protein analysis by western blot using 30 μg total protein and probed for pRb-ser780*, ser795* and ser807/811* (pRb phosphorylated at serine 780, serine 795 and serine 807/811 respectively). Lanes D, T and C contain protein samples from cells treated with diluent, T-oligo and complementary oligo respectively. β-actin was used as a loading control.
Parallel cultures were treated as described in FIG. 13a. Cells were then washed once with PBS and refed with complete medium without additional treatment for 24 hours or 48 hours. FIG. 14a: SA-β-Gal activity. […]
HT-1080 fibrosarcoma cells cultured on Permanox chamber slides were treated with diluent, 40 μM T-oligo or 40 μM complementary oligo for 4 days and DNA synthesis was assayed using 5-bromo-2′-deoxy-uridine (BrdU) Labeling and Detection Kit II (Roche Molecular Biochemicals, Indianapolis, Ind.) following the protocol supplied by the manufacturer. […] After incubation with anti-mouse-Ig-alkaline phosphatase, the color reaction was detected by light microscopy. […]
Background: Incorporation of labelled thymidine or its analogues reports DNA synthesis.

The next series deals with fibroblasts. As to the kind of experiment: Degradation of the telomere 3′ overhang in fibroblasts. It is filed as cell-based. The settings on record: up to 1 week (data not shown).

{P} = phosphate

Take “pGTTAGGGTTAG (DNA, 5' {P}, backbone not given here; listed as Homo sapiens) [Oligonucleotide 11mer-1]”: in series [1], the “cells in the S phase” value is on record as “Forty-three”. For the same substance, the SA-β-Gal positive cells in series [2] is listed as 60±5%. The “DNA synthesis (BrdU) after removal of oligo” value in series [3] (HT-1080, 4 days 40 μM, then 1 and 2 days fresh medium without oligonucleotide) was “did not resume DNA synthesis”. In series [3] (HT-1080 cells, 40 μM, 4 days), the “BrdU incorporation (BrdU positive cells)” value is given as 7±2%. In addition, the “degradation of the telomere 3′ overhang” value in the series on fibroblasts is reported as “does not result in degradation”.
